Experimental findings from US20230139171A1 (SITA Information Networking Computing UK Limited, priority 2019, published 2023) are described below.

What all share (format): cell-based
One assay has as its target T1, human TLR8 (Homo sapiens, UniProt Q9NR97).
T1 construct: host or cells: HEK-Blue cells
T1 sequence (Q9NR97 27-1041): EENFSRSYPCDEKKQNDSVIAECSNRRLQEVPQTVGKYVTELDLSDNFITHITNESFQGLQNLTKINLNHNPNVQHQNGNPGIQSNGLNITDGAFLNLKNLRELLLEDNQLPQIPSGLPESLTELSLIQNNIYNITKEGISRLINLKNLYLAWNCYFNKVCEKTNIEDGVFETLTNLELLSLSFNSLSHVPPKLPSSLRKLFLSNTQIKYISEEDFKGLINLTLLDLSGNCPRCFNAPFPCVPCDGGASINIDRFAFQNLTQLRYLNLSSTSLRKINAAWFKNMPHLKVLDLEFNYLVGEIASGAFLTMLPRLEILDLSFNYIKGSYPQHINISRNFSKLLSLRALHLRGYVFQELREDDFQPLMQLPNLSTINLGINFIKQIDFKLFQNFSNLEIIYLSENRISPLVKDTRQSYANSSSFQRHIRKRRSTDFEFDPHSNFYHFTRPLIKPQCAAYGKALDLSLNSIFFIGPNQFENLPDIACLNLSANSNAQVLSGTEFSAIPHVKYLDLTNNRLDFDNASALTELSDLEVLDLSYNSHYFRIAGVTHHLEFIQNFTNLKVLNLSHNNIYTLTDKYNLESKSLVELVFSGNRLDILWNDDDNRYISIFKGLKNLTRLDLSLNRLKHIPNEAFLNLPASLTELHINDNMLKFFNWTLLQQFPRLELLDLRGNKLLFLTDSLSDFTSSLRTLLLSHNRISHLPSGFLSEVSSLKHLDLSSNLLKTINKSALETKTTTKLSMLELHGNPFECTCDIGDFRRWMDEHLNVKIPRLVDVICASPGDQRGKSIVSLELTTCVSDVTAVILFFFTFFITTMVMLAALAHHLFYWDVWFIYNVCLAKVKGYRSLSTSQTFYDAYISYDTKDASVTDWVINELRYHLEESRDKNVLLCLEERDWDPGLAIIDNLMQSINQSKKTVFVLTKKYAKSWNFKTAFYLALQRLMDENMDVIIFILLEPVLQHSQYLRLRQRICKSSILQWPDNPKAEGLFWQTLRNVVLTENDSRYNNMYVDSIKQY
As to the kind of experiment: TLR8 inhibition reporter assay (HEK-Blue cells, SEAP reporter, R848 stimulation). The following applies: HEK-Blue cells overexpressing human TLR8, SEAP reporter, R848 15.9 μM; read-out: TLR8 IC50. Put shortly: (§1)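 Dose–response from 0.05 nM to 50 μM was run in HEK-Blue human TLR7, TLR8 and TLR9 reporter cells. After 30 min at room temperature with compound, ligand was added (TLR7 gardiquimod 7.5 μM; TLR8 R848 15.9 μM; TLR9 ODN2006 5 nM) and SEAP measured next day, at 22 h.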
(Reporter assays use an easily measured gene product as a stand-in for the process of interest.)

In the next assay the target is T2, human TLR7 (Homo sapiens, UniProt Q9NYK1).
T2 construct: host or cells: HEK-Blue cells
T2 sequence (Q9NYK1 27-1049): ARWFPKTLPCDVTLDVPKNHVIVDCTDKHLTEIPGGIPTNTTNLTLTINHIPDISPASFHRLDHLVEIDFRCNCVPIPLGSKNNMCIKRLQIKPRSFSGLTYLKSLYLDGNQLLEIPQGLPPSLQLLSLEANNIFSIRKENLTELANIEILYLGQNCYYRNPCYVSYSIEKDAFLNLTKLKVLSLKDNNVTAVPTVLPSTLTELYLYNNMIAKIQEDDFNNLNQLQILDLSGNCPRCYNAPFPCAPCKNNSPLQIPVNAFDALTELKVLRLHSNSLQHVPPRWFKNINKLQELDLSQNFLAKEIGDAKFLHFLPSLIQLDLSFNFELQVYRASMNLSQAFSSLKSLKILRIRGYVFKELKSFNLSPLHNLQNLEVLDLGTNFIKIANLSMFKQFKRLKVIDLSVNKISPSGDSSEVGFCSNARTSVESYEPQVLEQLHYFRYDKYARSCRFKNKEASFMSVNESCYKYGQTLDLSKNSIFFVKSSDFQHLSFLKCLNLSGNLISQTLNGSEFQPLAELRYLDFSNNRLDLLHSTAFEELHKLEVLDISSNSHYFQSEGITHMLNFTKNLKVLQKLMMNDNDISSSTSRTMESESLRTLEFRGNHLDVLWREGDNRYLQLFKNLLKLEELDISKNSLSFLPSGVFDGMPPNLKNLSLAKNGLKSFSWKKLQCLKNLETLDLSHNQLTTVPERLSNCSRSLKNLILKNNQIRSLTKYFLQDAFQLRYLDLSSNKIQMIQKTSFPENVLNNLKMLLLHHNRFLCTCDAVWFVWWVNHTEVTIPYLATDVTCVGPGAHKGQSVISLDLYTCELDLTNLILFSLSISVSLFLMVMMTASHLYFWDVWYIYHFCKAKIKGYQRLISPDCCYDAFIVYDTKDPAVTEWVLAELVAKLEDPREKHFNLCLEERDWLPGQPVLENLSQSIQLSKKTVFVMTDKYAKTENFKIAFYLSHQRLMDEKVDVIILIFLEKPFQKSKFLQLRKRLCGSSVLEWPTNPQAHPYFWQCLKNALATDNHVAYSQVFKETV
As to the kind of experiment: TLR7 inhibition reporter assay (HEK-Blue cells, SEAP reporter, gardiquimod stimulation). The following applies: HEK-Blue cells overexpressing human TLR7, SEAP reporter, gardiquimod 7.5 μM; read-out: TLR7 IC50. Put shortly: as §1

In a further assay the target is T3, human TLR9 (Homo sapiens, UniProt Q9NR96).
T3 construct: host or cells: HEK-Blue cells
T3 sequence (Q9NR96 26-1032): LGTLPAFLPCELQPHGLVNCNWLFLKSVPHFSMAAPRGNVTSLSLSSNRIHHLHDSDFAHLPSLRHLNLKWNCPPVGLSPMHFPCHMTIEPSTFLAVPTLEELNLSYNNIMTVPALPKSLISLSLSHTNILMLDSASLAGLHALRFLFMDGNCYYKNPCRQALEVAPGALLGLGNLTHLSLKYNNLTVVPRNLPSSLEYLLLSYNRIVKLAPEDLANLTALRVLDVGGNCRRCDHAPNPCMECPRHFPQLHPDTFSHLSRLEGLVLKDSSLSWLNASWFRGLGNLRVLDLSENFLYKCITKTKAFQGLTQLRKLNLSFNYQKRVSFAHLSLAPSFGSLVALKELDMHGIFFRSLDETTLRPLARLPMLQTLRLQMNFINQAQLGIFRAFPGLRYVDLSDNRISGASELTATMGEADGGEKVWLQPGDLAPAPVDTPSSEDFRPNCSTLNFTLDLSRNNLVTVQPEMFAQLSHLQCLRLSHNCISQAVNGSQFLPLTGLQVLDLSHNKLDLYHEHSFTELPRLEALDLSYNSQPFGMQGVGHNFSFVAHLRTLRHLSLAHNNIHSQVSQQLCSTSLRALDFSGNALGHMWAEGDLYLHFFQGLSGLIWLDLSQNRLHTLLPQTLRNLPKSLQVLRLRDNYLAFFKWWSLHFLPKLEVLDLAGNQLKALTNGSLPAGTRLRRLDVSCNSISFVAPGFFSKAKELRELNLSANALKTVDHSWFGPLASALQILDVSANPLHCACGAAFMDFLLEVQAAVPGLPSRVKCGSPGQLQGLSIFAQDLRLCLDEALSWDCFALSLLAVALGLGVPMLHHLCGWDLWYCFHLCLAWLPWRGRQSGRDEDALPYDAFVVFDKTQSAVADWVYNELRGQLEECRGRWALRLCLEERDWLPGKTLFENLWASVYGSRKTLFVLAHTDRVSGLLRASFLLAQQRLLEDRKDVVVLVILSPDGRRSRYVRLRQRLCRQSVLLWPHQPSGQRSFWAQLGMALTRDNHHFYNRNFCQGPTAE
As to the kind of experiment: TLR9 inhibition reporter assay (HEK-Blue cells, SEAP reporter, ODN2006 stimulation). The conditions noted are these: HEK-Blue cells overexpressing human TLR9, SEAP reporter, ODN2006 5 nM. Put shortly:
as §1

Structures are written as SMILES.

Usually IC50 stands for the concentration needed to halve the response being measured.

For `Cc1c(-c2[nH]c3sc(N4CCN(C)C[C@H]4C)nc3c2C(C)C)cn2ncnc2c1C` [Example 319, (R)-5-(7,8-dimethyl-[1,2,4]triazolo[1,5-a]pyridin-6-yl)-2-(2,4-dimethylpiperazin-1-yl)-6-isopropyl-4H-pyrrolo[3,2-d]thiazole], the IC50 came to 0.00053 µM on human TLR8, 0.00384 µM at human TLR7 and 19.4 µM against human TLR9.
The matching figures for `Cc1c(-c2[nH]c3sc(CNCC4(S(C)(=O)=O)CC4)nc3c2C(C)C)cn2ncnc2c1C` [Example 405, 1-(5-(7,8-dimethyl-[1,2,4]triazolo[1,5-a]pyridin-6-yl)-6-isopropyl-4H-pyrrolo[3,2-d]thiazol-2-yl)-N-((1-(methylsulfonyl)cyclopropyl)methyl)methanamine]: 0.215 µM, 0.0775 µM and 37.7 µM.
The matching figures for `Cc1cc2ncnn2cc1-c1[nH]c2sc(C3CCC(NC4CCOCC4)CC3)nc2c1C(C)C` (single isomer, unassigned) [Example 161, N-(4-(6-isopropyl-5-(7-methyl-[1,2,4]triazolo[1,5-a]pyridin-6-yl)-4H-pyrrolo[3,2-d]thiazol-2-yl)cyclohexyl) tetrahydro-2H-pyran-4-amine]: 0.0147 µM, 0.0181 µM and 17 µM.
The matching figures for `Cc1c(-c2[nH]c3sc(C4CCC(N5CC6(COC6)C5)CC4)nc3c2C(C)C)cn2ncnc2c1C` (single isomer, unassigned) [Example 193, 6-(4-(5-(7,8-dimethyl-[1,2,4]triazolo[1,5-a]pyridin-6-yl)-6-isopropyl-4H-pyrrolo[3,2-d]thiazol-2-yl)cyclohexyl)-2-oxa-6-azaspiro[3.3]heptane]: 0.00445 µM, 0.00197 µM and 7.63 µM.
As to `Cc1c(-c2[nH]c3sc(N4C[C@@H](C)N(C5COC5)C[C@@H]4C)nc3c2C(C)C)cn2ncnc2c1C` [Example 328, 2-((2S,5R)-2,5-dimethyl-4-(oxetan-3-yl)piperazin-1-yl)-5-(7,8-dimethyl-[1,2,4]triazolo[1,5-a]pyridin-6-yl)-6-isopropyl-4H-pyrrolo[3,2-d]thiazole], the values for the IC50 on human TLR8, on human TLR7 and on human TLR9 were 0.0128 µM, 0.0129 µM and 18.8 µM, respectively.
The matching figures for `Cc1cc2ncnn2cc1-c1[nH]c2sc(C3CCC(N(C)C(C)C)CC3)nc2c1C(C)C` (single isomer, unassigned) [Example 159, N-isopropyl-4-(6-isopropyl-5-(7-methyl-[1,2,4]triazolo[1,5-a]pyridin-6-yl)-4H-pyrrolo[3,2-d]thiazol-2-yl)-N-methylcyclohexan-1-amine]: 0.00478 µM, 0.00879 µM and 6.87 µM.
Taken in the same sequence, the figures for `Cc1c(-c2[nH]c3sc(C4CCC(N5CC(F)(F)C5)CC4)nc3c2C(C)C)cn2ncnc2c1C` (single isomer, unassigned) [Example 219, 2-(4-(3,3-difluoroazetidin-1-yl)cyclohexyl)-5-(7,8-dimethyl-[1,2,4]triazolo[1,5-a]pyridin-6-yl)-6-isopropyl-4H-pyrrolo[3,2-d]thiazole] were 0.713 µM, 0.637 µM and 46.2 µM.
The matching figures for `Cc1cc(-c2[nH]c3sc(C4CCN(CC5(C)COC5)CC4)nc3c2C(C)C)cn2ncnc12` [Example 23, 6-isopropyl-5-(8-methyl-[1,2,4]triazolo[1,5-a]pyridin-6-yl)-2-(1-((3-methyloxetan-3-yl)methyl)piperidin-4-yl)-4H-pyrrolo[3,2-d]thiazole]: 0.00101 µM, 0.00127 µM and 4.77 µM.
With `COc1cc(-c2[nH]c3sc(C4CCN(C5COC5)CC4)nc3c2C(C)C)cn2ncnc12` [Example 11, 6-isopropyl-5-(8-methoxy-[1,2,4]triazolo[1,5-a]pyridin-6-yl)-2-(1-(oxetan-3-yl)piperidin-4-yl)-4H-pyrrolo[3,2-d]thiazole], the IC50 turned out to be 0.00931 µM at human TLR8, 0.00378 µM on human TLR7 and 18.5 µM against human TLR9.
Taken in the same sequence, the figures for `Cc1c(-c2[nH]c3sc(C4CCC(N5CC6(COC6)C5)CC4)nc3c2C(C)C)cn2ncnc2c1C` (single isomer, unassigned) [Example 192, 6-(4-(5-(7,8-dimethyl-[1,2,4]triazolo[1,5-a]pyridin-6-yl)-6-isopropyl-4H-pyrrolo[3,2-d]thiazol-2-yl)cyclohexyl)-2-oxa-6-azaspiro[3.3]heptane] were 0.00033 µM, 0.00167 µM and 16.2 µM.
The matching figures for `CC(C)c1c(-c2cn(C)c3ncccc23)[nH]c2sc(C3CCN(C4CCOCC4)CC3)nc12` [Example 35, 6-isopropyl-5-(1-methyl-1H-pyrrolo[2,3-b]pyridin-3-yl)-2-(1-(tetrahydro-2H-pyran-4-yl)piperidin-4-yl)-4H-pyrrolo[3,2-d]thiazole]: 0.00079 µM, 0.00277 µM and 4.35 µM.
